Test results as given in patent publication US12103952B2, “Methods for expressing proteins in axons” (Cornell University, priority 2010, dated 2024).

System: DRG axons
Assay: IRES-driven myr-dEGFP Sindbis reporter in compartmented cultures with translation inhibitors
Type: cell-based, rat
Details: added for 48 hrs to the axonal compartment
Source text: FIGS. 1A-O are data showing that the compartmentalization of DRGs enables axon-specific manipulations and quantitative measurement using fluorescent probes. (A) Immunofluorescence analysis of 3 DIV DRG cultures+/−5-FdU. […] Scale bar, 50 μm. […] Scale bar, 50 μm. (C) Immunofluorescence analysis of compartmented cultures (montage micrographs). Retrogradely labeled (WGA-Alexa555, red) DRG axons fasciculate and grow under the 1 mm divider into the axon compartment. Axons defasciculate as they enter the axon compartment. Cell bodies (DAPI, blue) are restricted to the cell body compartment. Only WGA-Alexa555 labeled cell bodies are included in data sets, as they comprise the population of neurons extending axons across the divider. (D) Dissociated DRG neurons (5 DIV) in compartmented cultures were treated with NGF in either or both compartments. […] Numbers on bars represent n cells per condition. (E, F) DRG axons in compartmented cultures were infected with a Sindbis virus encoding myr-dEGFP under the control of an IRES by applying the virus to both cell body and axonal compartments. […] All compartments were maintained in identical NGF-containing media throughout the course of the experiment. […] Incomplete abolishment of FISH signals, relative to siRNA-treated axons, reflects residual alternatively-spliced CREBβ transcripts in these hypomorphic animals (Blendy et al., EMBO Journal 15, 1098-1106 (1996)). Additionally, axonal mRNAs are trafficked as mRNA-ribosome complexes, and impaired CREBβ mRNA-ribosome interactions due to the poor Kozak site (Blendy et al., EMBO Journal 15, 1098-1106 (1996)) in this transcript may lead to inefficient trafficking. Scale bar, 10 μm. (H) Quantification of data in (G). *p<0.0001. Numbers on bars represent n axons per condition. (I) Similar to the experiment in FIG. 4A, except equivalent numbers of cell bodies and axon terminals were used for Western blotting. DRG explants were cultured in Boyden chambers, and the upper compartment was incubated in 0 ng/ml NGF. The lower compartment was incubated in either 0 ng/ml NGF or 100 ng/ml NGF for 3 hours. Axon lysates (˜10^4 cells) were prepared from the underside of the membrane and analysed by Western blot. As in FIG. 4A, only CREB was detected in axons, and CREB localization in […] axons was dependent on NGF in the culture media. (J) DRG cultures were transfected with CREB siRNA and CREB levels were detected using a CREB antibody. […] Scale bar, 20 μm. (K) Quantification of data in (J). *p<0.001. Numbers on bars represent n axons per condition. (L) E15 DRG neuronal lysate (10 μg) was subjected to immunoblotting with the CST-9192 CREB antibody. (M) CREB was detected by immunofluorescence using CREB antibody sc-186 (see I, FIG. 4A, and Table S4). Scale bar 10 μm. […] (0) Quantification of data in (M). *p<0.0001. […]

| Structure (SMILES) | myr-EGFP fluorescence in the axonal compartment | myr-EGFP levels in the cell body compartment |
| --- | --- | --- |
| COc1ccc(C[C@H]2NC[C@H](O)[C@H]2OC(C)=O)cc1 [anisomycin] | loss of myr-EGFP fluorescence | no significant effect |
| C[C@@H]1C[C@@H]([C@H](O)CC2CC(=O)NC(=O)C2)C(=O)[C@@H](C)C1 [cycloheximide] | loss of myr-EGFP fluorescence | no significant effect |
